Assay results: patent publication US9034825B2, “Treatment of myocardial injury with humanin analogs” (Albert Einstein College of Medicine of Yeshiva University, priority 2007, dated 2015)
Several values for one entry are separate records, joined by “and”; a condition that tells them apart may be missing. Equal values may be shown once.

What was measured:
PEPCK mRNA in the liver = assay: Hepatic PEPCK mRNA by qRT-PCR at end of clamp after ICV infusion; format: in vivo, rat; details: ICV infusion for 6 h
Experimental: (§1) Total RNA was extracted following Clontech's protocol. First-stranded cDNA was synthesized from 1 μg of total RNA using Superscript III (Gibco, Gaithersburg, Md.). Hepatic glucose-6-phosphatase (Glc-6-Pase) and phosphoenolpyruvate carboxykinase (PEPCK) mRNA abundance were assessed by qRT-PCR as described previously (Buettner et al., 2005). Quantification of these peptides and their copy number was normalized for GAPDH and 18S to correct for loading irregularities. The data presented are those normalized by GAPDH.

[1] = tested on: Glc-6-Pase mRNA in the liver; assay: Hepatic Glc-6-Pase mRNA by qRT-PCR at end of clamp after ICV infusion; format: in vivo, rat; details: ICV infusion for 6 h
Experimental: as §1

Sprague-Dawley rats [2] = assay: Intravenous infusion of humanin or analogs during hyperinsulinemic clamp; format: in vivo, rat
Experimental: To study the acute effects of an infusion of IGFBP-3, two groups of awake, unstressed, chronically catheterized Sprague-Dawley rats (˜300 g) were studied for 300 min (n=3 in each group) under hyperinsulinemic clamp (as previously described). From 120 min the rats received a primed continuous infusion of humanin (0.375 mg/kg/hr) or saline (control) for an additional 2 h. Plasma samples for determination of [3H]glucose and [3H] water specific activities were obtained at 10-min intervals during the basal and clamp periods. Steady state conditions for the plasma glucose concentration and specific activity were achieved within 90 min in all the studies. Plasma samples for determination of HN, insulin and FFA concentrations were collected at 30-min intervals throughout the study. All determinations were also performed on portal vein blood obtained at the end of the experiments. The total amount of blood drawn during the entire study for various assays is ˜3 cc. After separation of plasma (subsequently used for analysis), the red blood cells were reconstituted in saline and infused back into the animal.
To determine if peripheral infusion of the humanin analog colivelin affects insulin action, saline or colivelin (one hundredth of the dose of humanin) was infused intravenously during hyperinsulinemic clamp to two groups of rats that were matched for body weight (˜300 gm), visceral fat (˜3.5 grams), basal glucose (˜135 mg % or 7 mM). Colivelin increased hepatic insulin sensitivity by 33% while peripheral glucose uptake was unchanged (FIG. 14).
(§2) A primed-continuous ICV infusion of HN, F6A-HN (total dose of 20 μg), STAT-3 inhibitor (75 pmol) (Buettner et al. 2006), or aCSF was initiated at t=0 and maintained for the remainder of the experiment (FIG. 15A). Pancreatic insulin-clamp studies or euglycemic-hyperinsulinemic clamps were performed in conscious, unrestrained, catheterized mice for last 120 minutes as described previously (Bahar et al. 2006, Muzumdar et al. 2006). In the intra-venous group, HN, F6A, Colivelin, and HNGF6A were infused intravenously and hyperinsulinemic clamps were performed as described previously (Loeb et al. 2005). Estimation of glucose, glucose fluxes, insulin, FFA were done as described previously (Loeb et al. 2005). HN measurements were performed by an in-house, ELISA utilizing affinity purified humanin antibodies that recognize both human and rat humanin and has a limit of detection of 0.1 ng/ml (Hwang, and Cohen personal communication).

[3] = tested on: phospho Akt and ACC in muscle; assay: Western blot of skeletal muscle insulin signaling after ICV infusion; format: in vivo, rat; details: muscle tissues from ICV-infused rats
Experimental: The indicated tissues were homogenized in 20 mM MOPS, 2 mM EGTA, 5 mM EDTA, 30 mM sodium fluoride, 40 mM beta-glycerophosphate, 10 mM sodium pyrophosphate, 2 mM orthovanadate, 0.5% NP-40 and complete protease inhibitor cocktail (Roche, Indianapolis, Ind., USA) and centrifuged at 12,000 g for 15 min and the supernatant was harvested while carefully avoiding the lipid layer on top. Protein concentration was measured with a BCA protein quantification kit (Pierce, Rockford, Ill., USA). Protein extracts were separated on 4-12% NuPAGE (Invitrogen, Carlsbad, Calif., USA) gels and were blotted onto Immobilon FL PVDF (Millipore, Billerica, Mass., USA). […] After three washes in TBS-T and a final wash in TBS the blots were scanned using the LI-COR Odyssey (LI-COR, Lincoln, Nebr., USA) and quantified using Odyssey 2.0 software based on direct fluorescence measurement.
For acute signaling studies, rats were injected ICV with either aCSF, 20 μg of HN or F6A (dissolved in aCSF) over 5 min, and sacrificed 30 min later. […] Samples were also obtained from these tissues at the end of the clamp and western blot analysis was performed as described previously (Muzumdar et al. 2003) The blots were scanned using the LI-COR Odyssey (LI-COR, Lincoln, Nebr., USA) and quantified using Odyssey 2.0 software based on direct fluorescence measurement. […]

3T3L1 adipocytes = assay: Glucose transport in 3T3L1 adipocytes; format: cell-based; details: 3T3L1 cells, basal and insulin-stimulated
Source text: Using the 3T3L1 adipocyte model, the effects of humanin on insulin action and glucose transport were investigated.

Sprague-Dawley rats [4] = assay: ICV infusion with pancreatic insulin clamp or hyperinsulinemic clamp (Example 5); format: in vivo, rat; details: for peripheral glucose infusion rate: ICV, hyperinsulinemic clamp
Experimental: Studies were conducted with 92 three-month-old male Sprague-Dawley rats (Charles River Laboratories). Rats were housed in individual cages and subjected to a standard light-dark cycle. Rats were prepared for clamps as described in FIG. 15A. Three weeks before the in vivo studies catheters were implanted in the third cerebral ventricle (Muzumdar et al. 2003). One week before clamp experiments, catheters were placed in the right internal jugular vein and left carotid artery (Liu et al. 1998).
as §2

[5] = IV during hyperinsulinemic clamp, humanin 0.375 mg/kg/hr, colivelin one hundredth of the dose of humanin

Row | expression of G-6Pase in the liver, ratio to GAPDH ([1]; end of clamp (Example 2), listed as HN) | levels in rat CSF after peripheral infusion, range (Sprague-Dawley rats [2]; peripherally infused humanin) | serum concentrations of HN during ICV infusion (Sprague-Dawley rats [4]; ICV infusion) | expression of G-6Pase in the liver, ratio to GAPDH ([1]; end of clamp (Example 1)) | Molecule | PEPCK mRNA in the liver, ratio to GAPDH (PEPCK mRNA in the liver; end of clamp (Example 2)) | HGP / hepatic insulin action (Sprague-Dawley rats [2]; IV during hyperinsulinemic clamp, HN 0.375 mg/kg/hr, Colivelin 0.00375 mg/kg/hr) | increase in hepatic insulin sensitivity (Sprague-Dawley rats [2]; [5]) | peripheral glucose uptake (Sprague-Dawley rats [2]; [5]) | pAKT and acetyl CoA carboxylase in muscle compared to aCSF [3] | glucose transport (3T3L1 adipocytes) | hepatic glucose output (Sprague-Dawley rats [4]; ICV HN 0.1 μg/kg/min, basal and high insulin clamp) | peripheral glucose infusion rate (Sprague-Dawley rats [4]) | PEPCK mRNA in the liver, ratio to GAPDH (PEPCK mRNA in the liver; end of clamp (Example 1))
1 | 0.87 ±0.37 and 0.89 ±0.28 | 0 to 40 ng/mL | undetectable |  | CC[C@H](C)[C@H](NC(=O)[C@H](CCC(=O)O)NC(=O)[C@H](CO)NC(=O)[C@@H](NC(=O)[C@H](CC(C)C)NC(=O)[C@H](CC(C)C)NC(=O)[C@H](CC(C)C)NC(=O)[C@H](CC(C)C)NC(=O)[C@H](CS)NC(=O)[C@H](CO)NC(=O)[C@H](Cc1ccccc1)NC(=O)CNC(=O)[C@H](CCCNC(=N)N)NC(=O)[C@@H]1CCCN1C(=O)[C@H](C)NC(=O)[C@@H](N)CCSC)[C@@H](C)O)C(=O)N[C@@H](CC(=O)O)C(=O)N[C@@H](CC(C)C)C(=O)N1CCC[C@H]1C(=O)N[C@H](C(=O)N[C@@H](CCCCN)C(=O)N[C@@H](CCCNC(=N)N)C(=O)N[C@@H](CCCNC(=N)N)C(=O)N[C@@H](C)C(=O)O)C(C)C [Humanin, maprgfscll lltseidlpv krra] | 12.4 ±2.7 | trend towards decreased HGP | 80% | unchanged | significantly increased | significantly enhanced basal as well as insulin-stimulated glucose transport | significant decrease in hepatic glucose output | increased | 
2 |  |  |  | no changes | IGFBP-3: non glycosylated hIGFBP-3 (IGF binding protein-3), provided by Celtrix |  |  |  |  |  | inhibited insulin-stimulated glucose transport |  | decrease | 3.2 ±0.3
